This is an account of results in the C3SDB collision cross section collection.

For the data set the following is noted: instrument: DT, single field, calibrated with ESI Low Concentration Tuning Mix (Agilent).

The structures appear in SMILES notation. Values joined by “and” are separate entries in the source; they are usually repeats but may differ in a detail not shown here. Equal entries are not always repeated.

Take `O=C(O)C(O)COP(=O)(O)O` (centres undefined) [3-PHOSPHOGLYCERATE]: the “collision cross section (N2)” value runs as follows: ([M+H]+) 136.1 Å²; ([M+Na-2H]-) 133 Å² and 141.6 Å²; ([M+Na]+) 139.4 Å²; ([M-H]-) 124.4 Å².
On to `CC(=O)NCCCC(=O)O` [4-ACETAMIDOBUTANOATE], for which the “collision cross section (N2)” value by setting is: ([M+Na]+) 135.7 Å²; ([M-H]-) 130.8 Å².
Regarding `NC(N)=NCCCC(=O)O` [4-GUANIDINOBUTANOATE], the “collision cross section (N2)” value ([M+H]+) is recorded as 130 Å².
Consider `O=Cc1ccc(O)cc1` [4-HYDROXYBENZALDEHYDE], for which the “collision cross section (N2)” value ([M-H]-) is recorded as 118.2 Å².
As to `O=C(O)c1ccc([O-])cc1` [4-HYDROXYBENZOATE], the “collision cross section (N2)” value ([M-H]-) was 121.2 Å².
For `NCC(=O)CCC(=O)O` [5-AMINOLEVULINATE], the “collision cross section (N2)” value ([M+H]+) amounted to 130.7 Å².
As to `NCCc1cc(O)c(O)cc1O` [6-HYDROXYDOPAMINE], the “collision cross section (N2)” value ([M+H]+) came to 143 Å².
With `O=C(O)c1ccc(=O)[nH]c1` [6-HYDROXYNICOTINATE], under “[M+H]+”, the “collision cross section (N2)” value is 128.9 Å².
Consider `O=C(O)[C@H](O)[C@@H](O)[C@H](O)[C@H](O)COP(=O)(O)O` [6-PHOSPHOGLUCONATE], for which the “collision cross section (N2)” value is, setting by setting: ([M+Na-2H]-) 148.9 Å²; ([M+Na]+) 157.6 Å²; ([M-H]-) 143.6 Å².
With `Nc1ncnc2c1ncn2C1OC(CO)C2OP(=O)(O)OC21` (centres undefined) [ADENOSINE 2',3'-CYCLIC PHOSPHATE], the “collision cross section (N2)” value is, setting by setting: ([M+H2O-H]-) 173.5 Å²; ([M+H]+) 168.1 Å²; ([M+Na]+) 175.1 Å² and 181 Å²; ([M-H]-) 169.4 Å².
As to `Nc1ncnc2c1ncn2[C@@H]1O[C@H](COP(=O)(O)OP(=O)(O)O)[C@@H](O)[C@H]1O` [ADENOSINE 5'-DIPHOSPHATE], the “collision cross section (N2)” value ([M+H]+) is 187 Å², the “collision cross section (N2)” value ([M+Na-2H]-) came out at 187.7 Å², the “collision cross section (N2)” value ([M+Na]+) was 193.1 Å² and the “collision cross section (N2)” value ([M-H]-) came to 183.7 Å².
As to `NC(=O)NC1NC(=O)NC1=O` (centres undefined) [ALLANTOIN], the “collision cross section (N2)” value was 142.2 Å² ([M+Na]+) and 125.5 Å² ([M-H]-).
Consider `OC[C@H]1OC(O)[C@H](O)[C@H](O)[C@@H]1O` (some centres undefined) [ALLOSE], for which the “collision cross section (N2)” value ([M+Na]+) is 143.2 Å² and 146.2 Å².
As to `NC(CCCC(=O)O)C(=O)O` (centres undefined) [AMINOADIPATE], the “collision cross section (N2)” value worked out at 134.6 Å² ([M+H]+), 134 Å² ([M+Na-2H]-), 139.2 Å² ([M+Na]+) and 129.9 Å² ([M-H]-).
As to `Nc1ccccc1C(=O)O` [ANTHRANILATE], the “collision cross section (N2)” value ([M-H]-) worked out at 125.5 Å².
For the molecule `CCCCCCCCCCCCCCCCCCCC(=O)O` [ARACHIDATE], under “[M-H]-”, the “collision cross section (N2)” value is on record as 185.1 Å².
For `NC(=O)C[C@H](N)C(=O)O` [ASPARAGINE], the “collision cross section (N2)” value ([M+Na]+) came to 129.5 Å² and the “collision cross section (N2)” value ([M-H]-) was found to be 121.9 Å².
For `C[N+](C)(C)CC(=O)[O-]` [BETAINE], for the setting “[M+K]+”, the “collision cross section (N2)” value is 130.5 Å².
For `C=CC1=C(C)C(/C=c2\[nH]/c(=C\c3[nH]c(/C=C4\NC(=O)C(C)=C4C=C)c(C)c3CCC(=O)O)c(CCC(=O)O)c2C)=NC1=O` [BILIVERDIN], the “collision cross section (N2)” value runs as follows: ([M+H]+) 243.9 Å²; ([M+Na]+) 246.5 Å²; ([M-H]-) 246 Å².
`O=C(O)[C@H]1C[C@@H](O)CN1` [CIS-4-HYDROXY-D-PROLINE]: the “collision cross section (N2)” value by setting is: ([M+H]+) 128.3 Å²; ([M+Na]+) 130.6 Å²; ([M-H]-) 124.3 Å².
Consider `CC(O)(CC(=O)O)C(=O)O` (centres undefined) [CITRAMALATE], for which the “collision cross section (N2)” value is on record as 133.2 Å² ([M+Na]+) and 122 Å² ([M-H]-).
In the case of `COC1=C(OC)C(=O)C(C/C=C(\C)CC/C=C(\C)CC/C=C(\C)CC/C=C(\C)CC/C=C(\C)CC/C=C(\C)CC/C=C(\C)CC/C=C(\C)CC/C=C(\C)CCC=C(C)C)=C(C)C1=O` [COENZYME Q10], the “collision cross section (N2)” value ([M+Na]+) was 306.6 Å².
Take `CC(=O)OCC(=O)[C@@]1(O)CC[C@H]2[C@@H]3CCC4=CC(=O)CC[C@]4(C)[C@H]3[C@@H](O)C[C@@]21C` [CORTISOL 21-ACETATE]: the “collision cross section (N2)” value was found to be 198.8 Å² ([M+H]+), 207.2 Å² ([M+K]+), 203 Å² ([M+Na]+) and 196.3 Å² ([M-H]-).
With `Nc1nc(=O)c2ncn([C@@H]3O[C@@H]4COP(=O)(O)O[C@H]4[C@H]3O)c2[nH]1` [CYCLIC GMP], the “collision cross section (N2)” value reads like this: ([M+H]+) 172.4 Å²; ([M+Na-2H]-) 169.7 Å²; ([M+Na]+) 184.2 Å²; ([M-H]-) 167.8 Å².
As to `NC(CCSCC(N)C(=O)O)C(=O)O` (centres undefined) [CYSTATHIONINE], the “collision cross section (N2)” value ([M+H]+) is given as 147.3 Å², the “collision cross section (N2)” value ([M+Na-2H]-) was 144.6 Å², the “collision cross section (N2)” value ([M+Na]+) came to 147.1 Å² and the “collision cross section (N2)” value ([M-H]-) is 141.9 Å².
For `Nc1ccn([C@@H]2O[C@H](COP(=O)(O)O)[C@@H](O)[C@H]2O)c(=O)n1` [CYTIDINE MONOPHOSPHATE], the “collision cross section (N2)” value was 166.8 Å² and 167 Å² ([M+H]+); 163.2 Å² and 163.4 Å² ([M+Na-2H]-); 167.9 Å² and 168 Å² ([M+Na]+); 164.4 Å² and 164.5 Å² ([M-H]-).
`Nc1ccn([C@@H]2O[C@H](COP(=O)(O)OP(=O)(O)OP(=O)(O)O)[C@@H](O)[C@H]2O)c(=O)n1` [CYTIDINE TRIPHOSPHATE]: the “collision cross section (N2)” value reads like this: ([M+H]+) 188.4 Å²; ([M+Na-2H]-) 185 Å²; ([M+Na]+) 192.4 Å²; ([M-H]-) 181.2 Å².
On to `Nc1ccnc(=O)[nH]1` [CYTOSINE], for which the “collision cross section (N2)” value ([M+H]+) is listed as 122.8 Å².
On to `N[C@@H]1C(O)O[C@H](CO)[C@@H](O)[C@@H]1O` (stereo partly drawn) [D-MANNOSAMINE], for which the “collision cross section (N2)” value by setting is: ([M+H]+) 138.1 Å²; ([M+Na]+) 141.3 Å².
Turning to `Nc1ncnc2c1ncn2[C@H]1C[C@H](O)[C@@H](COP(=O)(O)O)O1` [DEOXYADENOSINE MONOPHOSPHATE], the “collision cross section (N2)” value runs as follows: ([M+H]+) 168.5 Å²; ([M+Na-2H]-) 169.8 Å²; ([M+Na]+) 173 Å²; ([M-H]-) 164.9 Å².
With `Nc1ccn([C@H]2C[C@H](O)[C@@H](COP(=O)(O)O)O2)c(=O)n1` [DEOXYCYTIDINE MONOPHOSPHATE], the “collision cross section (N2)” value ([M+Na]+) is 157 Å² and 164.7 Å²; the “collision cross section (N2)” value ([M-H]-) stood at 162.4 Å².
For the molecule `O=CC[C@H](O)[C@H](O)CO` [DEOXYRIBOSE], the “collision cross section (N2)” value ([M+Na]+) came to 134.3 Å².
`C[C@H](O)[C@H](O)C1=Nc2c([nH]c(N)nc2=O)NC1` [DIHYDROBIOPTERIN]: the “collision cross section (N2)” value is, setting by setting: ([M+H]+*) 153.9 Å²; ([M+Na]+*) 157.2 Å².
As for `NCCc1ccc(O)c(O)c1` [DOPAMINE], the “collision cross section (N2)” value stood at 142.3 Å² ([M+H]+) and 131.8 Å² ([M-H]-).
Regarding `OC[C@@H](O)[C@@H](O)CO` [ERYTHRITOL], under “[M+Na]+”, the “collision cross section (N2)” value is 129.9 Å².
`Nc1nc(=O)c2nc(CNc3ccc(C(=O)N[C@@H](CCC(=O)O)C(=O)O)cc3)cnc2[nH]1` [FOLATE]: the “collision cross section (N2)” value ([M+H]+) is reported as 196.2 Å², the “collision cross section (N2)” value ([M+Na-2H]-) came to 201.3 Å², the “collision cross section (N2)” value ([M+Na]+) worked out at 205.7 Å² and the “collision cross section (N2)” value ([M-H]-) is recorded as 192 Å².
In the case of `C[C@@H]1OC(O)[C@@H](O)[C@H](O)[C@@H]1O` (some centres undefined) [FUCOSE], the “collision cross section (N2)” value ([M+Na]+) was 138.7 Å².
Regarding `O=C(O)[C@@H](O)[C@H](O)[C@H](O)[C@@H](O)C(=O)O` [GALACTARATE], the “collision cross section (N2)” value reads like this: ([M+Na-2H]-) 137.2 Å²; ([M+Na]+) 146.9 Å²; ([M-H]-) 132.6 Å².
`OC[C@@H](O)[C@H](O)[C@H](O)[C@@H](O)CO` [GALACTITOL]: the “collision cross section (N2)” value ([M+Na]+) turned out to be 142.2 Å² and the “collision cross section (N2)” value ([M-H]-) came to 130.5 Å².
As for `O=C(O)[C@H](O)[C@@H](O)[C@H](O)[C@H](O)CO` [GLUCONATE], the “collision cross section (N2)” value ([M+Na]+) is 146.2 Å² and 146.3 Å²; the “collision cross section (N2)” value ([M-H]-) stood at 132.4 Å².
Regarding `N[C@@H]1[C@@H](O)[C@H](O)[C@@H](COS(=O)(=O)O)O[C@H]1O` [GLUCOSAMINE 6-SULFATE], the “collision cross section (N2)” value ([M-H]-) came out at 149.4 Å².
On to `N[C@@H](CCC(=O)O)C(=O)O` [GLUTAMATE], for which the “collision cross section (N2)” value by setting is: ([M+H]+) 131.1 Å²; ([M+K]+) 149.8 Å²; ([M+Na-2H]-) 131.8 Å²; ([M-H]-) 123.8 Å².
On to `NC(=O)CC[C@H](N)C(=O)O` [GLUTAMINE], for which the “collision cross section (N2)” value by setting is: ([M+H]+) 130.9 Å²; ([M-H]-) 127.3 Å².
As to `C[N+](C)(C)C[C@@H](CC(=O)[O-])OC(=O)CCCC(=O)O` [GLUTARYLCARNITINE], the “collision cross section (N2)” value reads like this: ([M+H]+) 161.1 Å²; ([M+Na]+) 167.1 Å²; ([M-H]-) 165.3 Å².
On to `C[C@H](CCC(=O)NCC(=O)O)[C@H]1CC[C@H]2[C@@H]3[C@H](O)C[C@@H]4C[C@H](O)CC[C@]4(C)[C@H]3CC[C@]12C` [GLYCOCHENODEOXYCHOLATE], for which the “collision cross section (N2)” value ([M+H]+) turned out to be 196.8 Å², the “collision cross section (N2)” value ([M+Na]+) turned out to be 203.6 Å² and the “collision cross section (N2)” value ([M-H]-) is on record as 200.7 Å².
